This is an account of results in ChEMBL document CHEMBL6182944, “Substrate Specificity of the Organic Cation Transporters MATE1 and MATE2K and Functional Overlap with OCT1 and OCT2” (J Med Chem, 2025).

The target of data set [1] is T1, Multidrug and toxin extrusion protein 1 (Homo sapiens, UniProt Q96FL8).
T1 sequence (Q96FL8 whole entry): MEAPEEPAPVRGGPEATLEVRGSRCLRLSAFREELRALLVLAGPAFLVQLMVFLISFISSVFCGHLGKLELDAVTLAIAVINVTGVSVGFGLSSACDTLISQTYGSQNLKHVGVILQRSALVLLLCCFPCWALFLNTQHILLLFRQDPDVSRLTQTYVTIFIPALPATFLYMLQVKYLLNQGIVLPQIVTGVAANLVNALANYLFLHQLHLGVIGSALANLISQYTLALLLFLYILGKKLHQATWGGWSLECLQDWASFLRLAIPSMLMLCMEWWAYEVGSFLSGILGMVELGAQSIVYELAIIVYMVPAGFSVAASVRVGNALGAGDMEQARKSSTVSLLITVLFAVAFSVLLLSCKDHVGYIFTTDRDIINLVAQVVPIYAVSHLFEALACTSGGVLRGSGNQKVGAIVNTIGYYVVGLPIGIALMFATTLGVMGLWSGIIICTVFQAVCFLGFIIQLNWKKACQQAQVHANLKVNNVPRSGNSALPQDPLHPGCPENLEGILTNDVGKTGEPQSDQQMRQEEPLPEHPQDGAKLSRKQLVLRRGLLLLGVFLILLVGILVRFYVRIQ
As to the kind of experiment: Substrate activity at MATE1 (unknown origin) expressed in HEK293 cells assessed as Vmax (maximum transport velocity) by HPLC-MS/MS analysis. Format: cell-based.

Data set [2] addresses T1, Multidrug and toxin extrusion protein 1. As to the kind of experiment: Substrate activity at MATE1 (unknown origin) expressed in HEK293 cells assessed as intrinsic clearance by measuring ratio of Vmax (maximum transport velocity) over Km measured per mg of protein by HPLC-MS/MS analysis. Format: cell-based.
Data set [3] has as its target T2, Multidrug and toxin extrusion protein 2 (Homo sapiens, UniProt Q86VL8).
T2 sequence (Q86VL8 whole entry): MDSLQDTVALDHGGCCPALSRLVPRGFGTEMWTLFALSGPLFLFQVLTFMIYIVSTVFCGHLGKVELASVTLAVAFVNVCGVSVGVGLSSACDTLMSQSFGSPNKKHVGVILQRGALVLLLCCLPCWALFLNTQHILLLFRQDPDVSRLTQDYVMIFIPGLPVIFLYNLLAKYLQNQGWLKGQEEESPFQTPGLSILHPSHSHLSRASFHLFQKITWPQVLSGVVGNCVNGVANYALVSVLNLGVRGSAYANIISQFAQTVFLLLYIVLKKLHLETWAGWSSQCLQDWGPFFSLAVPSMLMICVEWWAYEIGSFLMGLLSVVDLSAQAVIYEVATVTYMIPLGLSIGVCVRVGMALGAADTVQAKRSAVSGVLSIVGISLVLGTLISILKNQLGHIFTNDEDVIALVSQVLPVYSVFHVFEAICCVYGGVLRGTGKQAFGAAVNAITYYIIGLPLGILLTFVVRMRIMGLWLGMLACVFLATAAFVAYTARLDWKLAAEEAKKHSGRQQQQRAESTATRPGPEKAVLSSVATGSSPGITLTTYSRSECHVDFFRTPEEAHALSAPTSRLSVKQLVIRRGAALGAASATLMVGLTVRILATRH
As to the kind of experiment: Substrate activity at MATE2-K (unknown origin) expressed in HEK293 cells assessed as Vmax (maximum transport velocity) by HPLC-MS/MS analysis. It counts as cell-based.

Data set [4] has as its target T2, Multidrug and toxin extrusion protein 2. As to the kind of experiment: Substrate activity at MATE2-K (unknown origin) expressed in HEK293 cells assessed as intrinsic clearance by measuring ratio of Vmax (maximum transport velocity) over Km measured per mg of protein by HPLC-MS/MS analysis. Format: cell-based.
A further data set concerns the target T3, MATE1 (Homo sapiens, UniProt Q96FL8).
T3 sequence (Q96FL8 whole entry): T1 sequence (Q96FL8 whole entry)
As to the kind of experiment: in vitro.

For data set [5], the target named is T2, Multidrug and toxin extrusion protein 2. As to the kind of experiment: Substrate activity at MATE2-K (unknown origin) expressed in HEK293 cells assessed as ratio of uptake by the enantiomer with higher value to enantiomer with lower value at 2.5 uM measured after 1 min by HPLC-MS/MS analysis. It counts as cell-based. The settings on record: hek293, 1 min.

For another data set, the target named is T4, MATE2-K (Homo sapiens, UniProt Q86VL8).
T4 sequence (Q86VL8 whole entry): T2 sequence (Q86VL8 whole entry)
As to the kind of experiment: in vitro.

Data set [6] concerns the target T1, Multidrug and toxin extrusion protein 1. As to the kind of experiment: Substrate activity at MATE1 (unknown origin) expressed in HEK293 cells assessed as ratio of uptake by the enantiomer with higher value to enantiomer with lower value at 2.5 uM measured after 1 min by HPLC-MS/MS analysis. Conditions: hek293, 1 min. It counts as cell-based.
Data set [7] has as its target T2, Multidrug and toxin extrusion protein 2. As to the kind of experiment: Substrate activity at MATE2-K (unknown origin) expressed in HEK293 cells assessed as increase in uptake by HPLC-MS/MS analysis. Format: cell-based.
The target of data set [8] is T1, Multidrug and toxin extrusion protein 1. As to the kind of experiment: Substrate activity at MATE1 (unknown origin) expressed in HEK293 cells assessed as increase in uptake by HPLC-MS/MS analysis. It counts as cell-based.
The mark [9] stands for this setting: HEK293 cells expressing MATE2-K.

By Vmax is commonly meant the rate approached at saturating substrate. For `CN(C)CCc1c[nH]c2ccc(CC3COC(=O)N3)cc12` (racemic), the Vmax in [1] was found to be 2992 pmol/min; in data set [3], 740 pmol/min. Moreover, the CL came out at 52.4 µL/min in data set [2] and 32.1 µL/min in [4].
Turning to `CCN1CCCC1CNC(=O)c1cc(S(=O)(=O)CC)c(N)cc1OC` (racemic) [AMISULPRIDE], the maximum rate (Vmax) in data set [1] came out at 238 pmol/min. Besides, the CL in [2] was 22.4 µL/min; in data set [4], 17.8 µL/min. Further, the uptake ratio at 1 min, 2.5 µM on MATE1 (HEK293 cells expressing MATE1) and at MATE2-K (setting [9]) was more than 2 each time. Moreover, the Ratio in data set [5] and in data set [6] was more than 1 in each case.
For the compound `O=C(O)c1cn(C2CC2)c2cc(N3CCNCC3)c(F)cc2c1=O` [CIPROFLOXACIN], the Activity result in data set [7] and in [8] was “Dose-dependent-effect” each time.
As to `c1c2c(cc3c1OCO3)-c1cc3ccc4c(c3c[n+]1CC2)OCO4` [COPTISINE], the Vmax in data set [1] is recorded as 2901 pmol/min. Besides, the Activity result in data set [7] and in [8] was “Dose-dependent-effect” throughout. Besides, the uptake ratio at 1 min, 2.5 µM on MATE1 (HEK293 cells expressing MATE1) and at MATE2-K (setting [9]) was more than 2 each time.
In the case of `CN[C@@H]1CCc2[nH]c3ccc(C(N)=O)cc3c2C1` [FROVATRIPTAN], the Vmax was 4568 pmol/min in data set [1] and 869 pmol/min in data set [3]. Also, the Activity result in data set [7] and in [8] was “Dose-dependent-effect” in each case. For the same compound, the CL worked out at 64.9 µL/min in data set [2] and 77.8 µL/min in data set [4]. Moreover, the uptake ratio at 1 min, 2.5 µM at MATE1 (hek293) and at MATE2-K (hek293) was more than 2 each time.
For `Nc1ccn([C@@H]2CS[C@H](CO)O2)c(=O)n1` [LAMIVUDINE], the Activity entry in [7] and in data set [8] was “Dose-dependent-effect” in each case.
In the case of `CC(=O)OC(C)C[N+](C)(C)C` (stereo unspecified) [METHACHOLINE], the Vmax in data set [1] is reported as 17843 pmol/min; in data set [3], 1240 pmol/min. For the same compound, the CL in [2] was determined as 8.98 µL/min; in [4], 0.88 µL/min. In addition, the uptake ratio at 1 min, 2.5 µM on MATE1 (hek293) and at MATE2-K (hek293) was more than 2 in each case.
Regarding `CN(C)C(=O)Oc1cccc([N+](C)(C)C)c1` [NEOSTIGMINE], in data set [1], the Vmax came out at 7255 pmol/min. In addition, the Activity entry in data set [7] and in data set [8] was “Dose-dependent-effect” in each case. In addition, the CL in data set [2] worked out at 45.2 µL/min; in data set [4] it was 8.14 µL/min. The uptake ratio at 1 min, 2.5 µM on MATE1 (HEK293 cells expressing MATE1) and at MATE2-K (setting [9]) was more than 2 throughout.
Consider `NC[C@H](O)c1ccc(O)c(O)c1` [NOREPINEPHRINE], for which the Vmax turned out to be 18720 pmol/min in data set [1] and 673 pmol/min in data set [3]. Moreover, the CL turned out to be 10 µL/min in data set [2] and 0.59 µL/min in data set [4].
On to `N=C(N)c1ccc(OCCCCCOc2ccc(C(=N)N)cc2)cc1` [PENTAMIDINE], for which the Activity result in data set [7] and in [8] was “Dose-dependent-effect” each time.
On to `[H]/N=C(/N)N/C(=N/[H])NCCc1ccccc1` [PHENFORMIN], for which the maximal velocity (Vmax) was 8451 pmol/min in [1] and 1361 pmol/min in data set [3]. The CL in data set [2] was 83.9 µL/min; in [4], 18.6 µL/min. In addition, the uptake ratio at 1 min, 2.5 µM on MATE1 (hek293) and at MATE2-K (hek293) was more than 2 each time.
In the case of `CNC[C@H](O)c1cccc(O)c1` [PHENYLEPHRINE], the Vmax in data set [1] is given as 11611 pmol/min; in [3], 776 pmol/min. Besides, the CL in [2] turned out to be 24.5 µL/min; in data set [4], 1.79 µL/min. Moreover, the uptake ratio at 1 min, 2.5 µM at MATE1 (hek293) and on MATE2-K (hek293) was more than 2 each time.
Take `Cc1ncc(CO)c(CN)c1O` [PYRIDOXAMINE]: the Vmax in data set [1] is recorded as 5442 pmol/min; in data set [3], 989.5 pmol/min. Also, the CL was determined as 3.23 µL/min in data set [2] and 0.64 µL/min in data set [4]. The uptake ratio at 1 min, 2.5 µM at MATE1 (hek293) was more than 2; at MATE2-K (hek293) it was less than 2.
Consider `Cc1cc2nc3c(=O)[nH]c(=O)nc-3n(C[C@H](O)[C@H](O)[C@H](O)CO)c2cc1C` [RIBOFLAVIN], for which the Activity entry in [7] and in [8] was “Dose-dependent-effect” each time.
On to `COCCn1c2c([n+](Cc3cnccn3)c1C)C(=O)c1ccccc1C2=O` [SEPANTRONIUM], for which the Vmax in data set [1] is recorded as 304 pmol/min. Moreover, the Activity result in [7] and in [8] was “Dose-dependent-effect” throughout. In addition, the CL in data set [2] amounted to 3.76 µL/min; in [4] it was 9.19 µL/min. Besides, the uptake ratio at 1 min, 2.5 µM on MATE1 (HEK293 cells expressing MATE1) and on MATE2-K (setting [9]) was more than 2 each time.
As for `CCN1CCCC1CNC(=O)c1cc(S(N)(=O)=O)ccc1OC` (stereo unspecified) [SULPIRIDE], the maximum rate (Vmax) in [1] is recorded as 851 pmol/min; in data set [3], 1025 pmol/min. Further, the CL in data set [2] is 53.2 µL/min; in [4], 44.9 µL/min.
Regarding `Cc1ncc(C[n+]2csc(CCO)c2C)c(N)n1` [THIAMINE ION], the Vmax in data set [1] came out at 599 pmol/min. The Activity entry in data set [7] and in data set [8] was “Dose-dependent-effect” in each case. Besides, the CL is 34.9 µL/min in data set [2] and 6.32 µL/min in [4]. Also, the uptake ratio at 1 min, 2.5 µM at MATE1 (hek293) and at MATE2-K (hek293) was more than 2 in each case.
With `NCCc1ccc(O)cc1` [TYRAMINE], the Vmax is given as 5948 pmol/min in data set [1] and 2868 pmol/min in [3]. In addition, the CL in data set [2] came to 43.6 µL/min; in data set [4] it was 2.71 µL/min. For the same compound, the uptake ratio at 1 min, 2.5 µM on MATE1 (hek293) was more than 2; on MATE2-K (hek293), less than 2.
